Biological target: T1, NS3 genotype 3a protease (UniProt Q81258)
T1 construct: Purified NS3 protease domain (amino acids 1-181) of the genotype 1b and 3a virus were generated as above; fused on or other part: N-terminal hexahistidine tag and rTEV protease cleavage site (vector p28-N6H-Tev-NS3(181)3)
T1 sequence (Q81258 1033-1663): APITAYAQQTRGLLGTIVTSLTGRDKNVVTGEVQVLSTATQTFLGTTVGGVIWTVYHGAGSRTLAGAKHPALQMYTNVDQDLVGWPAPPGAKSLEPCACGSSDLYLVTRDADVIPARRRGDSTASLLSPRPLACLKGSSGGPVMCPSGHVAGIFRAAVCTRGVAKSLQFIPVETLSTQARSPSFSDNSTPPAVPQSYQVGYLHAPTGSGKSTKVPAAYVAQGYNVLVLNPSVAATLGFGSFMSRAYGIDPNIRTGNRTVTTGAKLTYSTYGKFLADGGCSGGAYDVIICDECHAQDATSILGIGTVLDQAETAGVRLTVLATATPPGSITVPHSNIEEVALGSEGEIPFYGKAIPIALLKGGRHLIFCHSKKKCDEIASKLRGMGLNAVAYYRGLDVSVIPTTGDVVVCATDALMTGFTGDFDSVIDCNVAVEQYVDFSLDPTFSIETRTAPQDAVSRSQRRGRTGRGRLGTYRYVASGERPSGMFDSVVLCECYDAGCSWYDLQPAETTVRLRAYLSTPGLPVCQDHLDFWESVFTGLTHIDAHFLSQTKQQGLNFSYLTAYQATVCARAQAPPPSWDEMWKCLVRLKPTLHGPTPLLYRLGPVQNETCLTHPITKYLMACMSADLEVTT
Assay: Ki determination, NS3 protease genotype 3a (fluorogenic depsipeptide substrate)
Assay type: biochemical, hepatitis C virus
Settings: 200 pM enzyme, 20 μM NS4A peptide, 2 μM substrate, read-out: Ki 3A
Source text: The coding sequences for the genotype 3 HCV protease domain was amplified by RT-PCR using a Titan One Tube RT-PCR Kit (Roche, Indianapolis, Ind.) and RNA extracted from HCV-positive human serum (BBI Diagnostics, MA) using a QIAmp UltraSens Virus Kit (Qiagen, Valencia, Calif.). 5′ PCR primers were designed to encode N-terminal hexahistidine tags and to insert in-frame rTEV protease cleavage sites into the NS3 protease coding sequences. The resulting DNA fragments were cloned into pET28 yielding the expression vectors p28-N6H-Tev-NS3(181)1a and p28-N6H-Tev-NS3(181)3, respectively.
BL21AI bacteria (Invitrogen, Carlsbad, Calif.) were transformed with genotype 1b or 3 NS3 expression vectors and used to inoculate a 20 L fermentation vessel (Sartorius BBI System Inc., Bethlehem, Pa.), containing 18 L of fresh 2YT medium supplemented with 50 μg/mL kanamycin. When cell densities reached an OD600 of 1, the temperature of the cultures was reduced from 37° C. to 28° C. and induction was immediately initiated by the addition of 30 μM ZnSO4, 14 mM L-arabinose and 1 mM Isopropyl β-D-thiogalactoside (IPTG) final concentrations. Cells were harvested by centrifugation four hours post-induction and were stored as frozen pellets at −80° C. prior to NS3 protein purification.
Bacterial pellets collected from the expression of genotype 3 HCV NS3 protease were homogenized in Lysis Buffer (25 mM tris, pH 7.5 buffer containing 150 mM NaCl and 1 mM phenylmethanesulfonyl fluoride (PMSF)) and passed through a microfluidizer at 18,000 pounds/in^2. Homogenized cell lysates were centrifuged at 30,000×g for 30 minutes at 4° C. The resulting P1 pellets were washed with Wash Buffer I (25 mM tris, pH 7.5 containing 1% CHAPS) followed by centrifugation at 10,000×g for 30 minutes at 4° C. […] The resulting P3 pellets were resuspended in Solubilization Buffer (20 ml of 25 mM tris, pH 7.5 containing 150 mM NaCl and 8 M urea) and incubated at 4° C. for one hour. Solubilized proteins were passed through a 0.45 micron filter. Protein concentrations were measured and the solutions were adjusted to 40 mM DTT, incubated for 30 minutes at 4° C. and then quickly diluted into Refolding Buffer (25 mM tris, pH 8.5, 0.8 M Guanidine-HCl, 0.4 M L-Arginine, 10 mM ZnSO4) while stirring. Protein solutions were incubated at 4° C. overnight to allow refolding. Refolded proteases were centrifuged at 30,000×g for 10 minutes to remove residual precipitates. Final protein concentrations were then measured and the NS3 proteases were aliquoted, snap frozen in liquid nitrogen and stored at −80° C.
Purified NS3 protease domain (amino acids 1-181) of the genotype 1b and 3a virus were generated as above. The internally quenched fluorogenic depsipeptide substrate Ac-DED(Edans)-EEAbuψ[COO]ASK(Dabcyl)-NH2 and a synthetic peptide containing the hydrophobic core residues of the NS4A protein cofactor ([…]; NS4A peptide) were obtained from Anaspec, Inc. (San Jose, Calif.). Other chemicals and biochemicals were of reagent grade or better and were purchased from standard suppliers.
Reactions were run at room temperature in buffer consisting of 50 mM HEPES, 40% glycerol, 0.05% Triton X-100, 10 mM DTT, and 10% DMSO. The final assay solutions contained 50 pM NS3 genotype 1b protease or 200 pM genotype 3a protease, 20 μM NS4A peptide, and 4 μM substrate (genotype 1 b) or 2 μM substrate (genotype 3a). Inhibitor concentrations varied from 100 nM to 5 pM in 3-fold dilutions, and no-inhibitor controls were included.
Compound dilutions were made in DMSO at 20× final concentration. Reaction mixtures were prepared in 96-well assay plates. A solution of enzyme and NS4A peptide in assay buffer (25 μL volume with both reagents at 4× final concentration) was mixed with 45 μL assay buffer and 5 μL of either inhibitor or DMSO, and pre-incubated at room temperature for 1 hour. The reaction was started by addition of 25 μL substrate solution at 4× final concentration. […]

| SMILES | Ki |
| --- | --- |
| CC[C@@H]1[C@@H]2CN(C(=O)[C@H](C(C)(C)C)NC(=O)O[C@@H]3C[C@H]3CCCCC(F)(F)c3nc4ccccc4nc3O2)[C@@H]1C(=O)N[C@]1(C(=O)NS(=O)(=O)C2CC2)C[C@H]1CC [Example 54, (1aR,5S,8S,9S,10R,22aR)-5-tert-butyl-N-{(1R,2R)-1-[(cyclopropylsulfonyl)carbamoyl]-2-ethylcyclopropyl}-9-ethyl-18,18-difluoro-3,6-dioxo-1,1a,3,4,5,6,9,10,18,19,20,21,22,22a-tetradecahydro-8H-7,10-methanocyclopropa[18,19][1,10,3,6]dioxadiazacyclononadecino[11,12-b]quinoxaline-8-carboxamide] | 500 pM |
| CC[C@@H]1[C@@H]2CN(C(=O)[C@H](C(C)(C)C)NC(=O)O[C@]3(C)CCC[C@H]3CCCCCc3nc4ccc(OC)cc4nc3O2)[C@@H]1C(=O)N[C@]1(C(=O)NS(=O)(=O)C2(C)CC2)C[C@H]1CCF [Example 52, (3aR,7S,10S,11S,12R,24aR)-7-tert-butyl-11-ethyl-N-[(1R,2S)-2-(2-fluoroethyl)-1-{[(1-methylcyclopropyl)sulfonyl]carbamoyl}cyclopropyl]-16-methoxy-3a-methyl-5,8-dioxo-1,2,3,3a,5,6,7,8,11,12,20,21,22,23,24,24a-hexadecahydro-10H-9,12-methanocyclopenta[18,19][1,10,3,6]dioxadiazacyclononadecino[11,12-b]quinoxaline-10-carboxamide] | 1300 pM |
| COc1ccc2nc3c(nc2c1)O[C@H]1CN(C(=O)[C@H](C(C)(C)C)NC(=O)O[C@@H]2CCC[C@H]2CCCCC3)[C@H](C(=O)N[C@]2(C(=O)NS(=O)(=O)C3CC3)C[C@H]2C(F)F)[C@@H]1C [Example 28, (3aR,7S,10S,11S,12R,24aR)-7-tert-butyl-N-[(1R,2R)-1-[(cyclopropylsulfonyl)carbamoyl]-2-(difluoromethyl)cyclopropyl]-16-methoxy-11-methyl-5,8-dioxo-1,2,3,3a,5,6,7,8,11,12,20,21,22,23,24,24a-hexadecahydro-10H-9,12-methanocyclopenta[18,19][1,10,3,6]dioxadiazacyclononadecino[11,12-b]quinoxaline-10-carboxamide] | 80 pM |
| CC[C@@H]1[C@@H]2CN(C(=O)[C@H](C(C)(C)C)NC(=O)O[C@@H]3C[C@H]3CCCCCc3nc4ccc(OC)cc4nc3O2)[C@@H]1C(=O)N[C@]1(C(=O)NS(=O)(=O)C2(C)CC2)C[C@H]1C [Example 73, (1aR,5S,8S,9S,10R,22aR)-5-tert-butyl-9-ethyl-14-methoxy-N-[(1R,2R)-2-methyl-1-{[(1-methylcyclopropyl)sulfonyl]carbamoyl}cyclopropyl]-3,6-dioxo-1,1a,3,4,5,6,9,10,18,19,20,21,22,22a-tetradecahydro-8H-7,10-methanocyclopropa[18,19][1,10,3,6]dioxadiazacyclononadecino[11,12-b]quinoxaline-8-carboxamide] | 820 pM |
| CC[C@@H]1[C@@H]2CN(C(=O)[C@H](C(C)(C)C)NC(=O)O[C@@H]3C[C@H]3CCCCCc3nc4ccc(OC)cc4nc3O2)[C@@H]1C(=O)N[C@]1(C(=O)NS(=O)(=O)C2CC2)C[C@H]1CC [Example 3, (1aR,5S,8S,9S,10R,22aR)-5-tert-butyl-N-{(1R,2R)-1-[(cyclopropylsulfonyl)carbamoyl]-2-ethylcyclopropyl}-9-ethyl-14-methoxy-3,6-dioxo-1,1a,3,4,5,6,9,10,18,19,20,21,22,22a-tetradecahydro-8H-7,10-methanocyclopropa[18,19][1,10,3,6]dioxadiazacyclononadecino[11,12-b]quinoxaline-8-carboxamide] | 560 pM |
| CC[C@@H]1[C@@H]2CN(C(=O)[C@H](C(C)(C)C)NC(=O)O[C@@H]3C[C@H]3CCCCC(F)c3nc4ccc(OC)cc4nc3O2)[C@@H]1C(=O)N[C@]1(C(=O)NS(=O)(=O)C2(C)CC2)C[C@H]1C(F)F (stereo partly drawn) [Example 90, (1aR,5S,8S,9S,10R,22aR)-5-tert-butyl-N-[(1R,2R)-2-(difluoromethyl)-1-{[(1-methylcyclopropyl)sulfonyl]carbamoyl}cyclopropyl]-9-ethyl-18-fluoro-14-methoxy-3,6-dioxo-1,1a,3,4,5,6,9,10,18,19,20,21,22,22a-tetradecahydro-8H-7,10-methanocyclopropa[18,19][1,10,3,6]dioxadiazacyclononadecino[11,12-b]quinoxaline-8-carboxamide] | 130 pM |

Same assay, conditions: read-out: Ki 3A, 200 pM enzyme, 20 μM NS4A peptide, 2 μM substrate

| SMILES | Ki |
| --- | --- |
| COc1ccc2nc3c(nc2c1)O[C@H]1CN(C(=O)[C@H](C(C)(C)C)NC(=O)O[C@@H]2C[C@@H]4C[C@@H]4[C@H]2CCCCC3)[C@H](C(=O)N[C@]2(C(=O)NS(=O)(=O)C3CC3)C[C@H]2CC(F)F)[C@@H]1C [Example 57, (1aS,2aR,6S,9S,10S,11R,23aR,23bS)-6-tert-butyl-N-[(1R,2S)-1-[(cyclopropylsulfonyl)carbamoyl]-2-(2,2-difluoroethyl)cyclopropyl]-15-methoxy-10-methyl-4,7-dioxo-1a,2,2a,4,5,6,7,10,11,19,20,21,22,23,23a,23b-hexadecahydro-1H,9H-8,11-methanocyclopropa[4′,5′]cyclopenta[1′,2′:18,19][1,10,3,6]dioxadiazacyclononade cino[11,12-b]quinoxaline-9-carboxamide] | 280 pM |
| CC[C@@H]1C[C@]1(NC(=O)[C@@H]1[C@H](C)[C@@H]2CN1C(=O)[C@H](C(C)(C)C)NC(=O)O[C@@H]1C[C@H]1CCCCCc1nc3ccc(OC)cc3nc1O2)C(=O)NS(=O)(=O)C1(C)CC1 [Example 21, (1aR,5S,8S,9S,10R,22aR)-5-tert-butyl-N-[(1R,2R)-2-ethyl-1-{[(1-methylcyclopropyl)sulfonyl]carbamoyl}cyclopropyl]-14-methoxy-9-methyl-3,6-dioxo-1,1a,3,4,5,6,9,10,18,19,20,21,22,22a-tetradecahydro-8H-7,10-methanocyclopropa[18,19][1,10,3,6]dioxadiazacyclononadecino[11,12-b]quinoxaline-8-carboxamide] | 450 pM |

Source: patent publication US20150175655A1 (priority 2012, published 2015)
